Measurements reported in ChEMBL document CHEMBL3808308, “Synergistic potentiation of (-)-lomaiviticin A cytotoxicity by the ATR inhibitor VE-821” (Bioorg Med Chem Lett, 2016).
The source made the active and inactive calls. The rule behind the calls is not given here.

How the values were obtained:
K562 [1] = assay: Potentiation of 0.0050 uM (-)-lomaiviticin A-induced cytotoxicity against human K562 cells assessed as combination index at 5 uM after 24 hrs by cell titer-glo luminescence assay; format: functional
K562 [2] = assay: Potentiation of 2.5x10'-5 uM (-)-lomaiviticin A-induced cytotoxicity against human K562 cells assessed as fraction ratio affected at 5 uM after 48 hrs by cell titer-glo luminescence assay; format: functional
K562 [3] = assay: Potentiation of 5x10'-5 uM (-)-lomaiviticin A-induced cytotoxicity against human K562 cells assessed as combination index at 5 uM after 48 hrs by cell titer-glo luminescence assay; format: functional
K562 [4] = assay: Potentiation of 5x10'-4 uM (-)-lomaiviticin A-induced cytotoxicity against human K562 cells assessed as combination index at 5 uM after 24 hrs by cell titer-glo luminescence assay; format: functional
K562 [5] = assay: Potentiation of 5x10'-4 uM (-)-lomaiviticin A-induced cytotoxicity against human K562 cells assessed as combination index at 5 uM after 48 hrs by cell titer-glo luminescence assay; format: functional
K562 [6] = assay: Potentiation of 0.0050 uM (-)-lomaiviticin A-induced cytotoxicity against human K562 cells assessed as fraction ratio affected at 5 uM after 48 hrs by cell titer-glo luminescence assay; format: functional
K562 [7] = assay: Potentiation of 0.0025 uM (-)-lomaiviticin A-induced cytotoxicity against human K562 cells assessed as combination index at 5 uM after 24 hrs by cell titer-glo luminescence assay; format: functional
K562 [8] = assay: Potentiation of 2.5x10'-4 uM (-)-lomaiviticin A-induced cytotoxicity against human K562 cells assessed as combination index at 5 uM after 24 hrs by cell titer-glo luminescence assay; format: functional
K562 [9] = assay: Potentiation of 2.5x10'-5 uM (-)-lomaiviticin A-induced cytotoxicity against human K562 cells assessed as combination index at 5 uM after 24 hrs by cell titer-glo luminescence assay; format: functional
K562 [10] = assay: Potentiation of 0.0050 uM (-)-lomaiviticin A-induced cytotoxicity against human K562 cells assessed as fraction ratio affected at 5 uM after 24 hrs by cell titer-glo luminescence assay; format: functional
K562 [11] = assay: Potentiation of 2.5x10'-4 uM (-)-lomaiviticin A-induced cytotoxicity against human K562 cells assessed as combination index at 5 uM after 48 hrs by cell titer-glo luminescence assay; format: functional
K562 [12] = assay: Potentiation of 5x10'-5 uM (-)-lomaiviticin A-induced cytotoxicity against human K562 cells assessed as combination index at 5 uM after 24 hrs by cell titer-glo luminescence assay; format: functional
K562 [13] = assay: Cytotoxicity against human K562 cells assessed as decrease in cell viability up to 2.5 to 10 uM after 24 to 48 hrs by cell titer-glo luminescence assay; format: cell-based
K562 [14] = assay: Potentiation of 2.5x10'-5 uM (-)-lomaiviticin A-induced cytotoxicity against human K562 cells assessed as combination index at 5 uM after 48 hrs by cell titer-glo luminescence assay; format: functional
K562 [15] = assay: Potentiation of 5x10'-4 uM (-)-lomaiviticin A-induced cytotoxicity against human K562 cells assessed as fraction ratio affected at 5 uM after 48 hrs by cell titer-glo luminescence assay; format: functional
K562 [16] = assay: Potentiation of 2.5x10'-4 uM (-)-lomaiviticin A-induced cytotoxicity against human K562 cells assessed as fraction ratio affected at 5 uM after 48 hrs by cell titer-glo luminescence assay; format: functional
K562 [17] = assay: Potentiation of 0.0025 uM (-)-lomaiviticin A-induced cytotoxicity against human K562 cells assessed as fraction ratio affected at 5 uM after 48 hrs by cell titer-glo luminescence assay; format: functional
K562 [18] = assay: Potentiation of 0.0050 uM (-)-lomaiviticin A-induced cytotoxicity against human K562 cells assessed as combination index at 5 uM after 48 hrs by cell titer-glo luminescence assay; format: functional
K562 [19] = assay: Potentiation of 0.0025 uM (-)-lomaiviticin A-induced cytotoxicity against human K562 cells assessed as combination index at 5 uM after 48 hrs by cell titer-glo luminescence assay; format: functional
[20] = Cytotoxicity against human K562 cells assessed as decrease in cell viability after 48 hrs by cell titer-glo luminescence assay; format: cell-based; conditions: read-out: ED50
K562 [21] = assay: Cytotoxicity against human K562 cells assessed as decrease in cell viability after 24 to 48 hrs by cell titer-glo luminescence assay; format: cell-based
K562 [22] = assay: Potentiation of 0.05 nM (-)-lomaiviticin A-induced cytotoxicity against human K562 cells assessed as combination index at 5 uM after 24 hrs by cell titer-glo luminescence assay; format: functional
K562 [23] = assay: Potentiation of 2.5 nM (-)-lomaiviticin A-induced cytotoxicity against human K562 cells assessed as combination index at 5 uM after 24 hrs by cell titer-glo luminescence assay; format: functional
K562 [24] = assay: Potentiation of 5 nM (-)-lomaiviticin A-induced cytotoxicity against human K562 cells assessed as fraction ratio affected at 5 uM after 24 hrs by cell titer-glo luminescence assay; format: functional
K562 [25] = assay: Potentiation of 2.5 nM (-)-lomaiviticin A-induced cytotoxicity against human K562 cells assessed as fraction ratio affected at 5 uM after 24 hrs by cell titer-glo luminescence assay; format: functional
K562 [26] = assay: Potentiation of 0.25 nM (-)-lomaiviticin A-induced cytotoxicity against human K562 cells assessed as fraction ratio affected at 5 uM after 24 hrs by cell titer-glo luminescence assay; format: functional
K562 [27] = assay: Potentiation of 0.025 nM (-)-lomaiviticin A-induced cytotoxicity against human K562 cells assessed as combination index at 5 uM after 48 hrs by cell titer-glo luminescence assay; format: functional
K562 [28] = assay: Potentiation of 0.05 nM (-)-lomaiviticin A-induced cytotoxicity against human K562 cells assessed as combination index at 5 uM after 48 hrs by cell titer-glo luminescence assay; format: functional
K562 [29] = assay: Potentiation of 5 nM (-)-lomaiviticin A-induced cytotoxicity against human K562 cells assessed as combination index at 5 uM after 48 hrs by cell titer-glo luminescence assay; format: functional
K562 [30] = assay: Potentiation of 0.25 nM (-)-lomaiviticin A-induced cytotoxicity against human K562 cells assessed as combination index at 5 uM after 24 hrs by cell titer-glo luminescence assay; format: functional
K562 [31] = assay: Potentiation of 0.025 nM (-)-lomaiviticin A-induced cytotoxicity against human K562 cells assessed as fraction ratio affected at 5 uM after 24 hrs by cell titer-glo luminescence assay; format: functional
K562 [32] = assay: Potentiation of 0.05 nM (-)-lomaiviticin A-induced cytotoxicity against human K562 cells assessed as fraction ratio affected at 5 uM after 48 hrs by cell titer-glo luminescence assay; format: functional
K562 [33] = assay: Potentiation of 2.5 nM (-)-lomaiviticin A-induced cytotoxicity against human K562 cells assessed as fraction ratio affected at 5 uM after 48 hrs by cell titer-glo luminescence assay; format: functional
K562 [34] = assay: Potentiation of 0.5 nM (-)-lomaiviticin A-induced cytotoxicity against human K562 cells assessed as combination index at 5 uM after 48 hrs by cell titer-glo luminescence assay; format: functional
K562 [35] = assay: Potentiation of 0.25 nM (-)-lomaiviticin A-induced cytotoxicity against human K562 cells assessed as fraction ratio affected at 5 uM after 48 hrs by cell titer-glo luminescence assay; format: functional
K562 [36] = assay: Potentiation of 5 nM (-)-lomaiviticin A-induced cytotoxicity against human K562 cells assessed as combination index at 5 uM after 24 hrs by cell titer-glo luminescence assay; format: functional
K562 [37] = assay: Potentiation of 0.5 nM (-)-lomaiviticin A-induced cytotoxicity against human K562 cells assessed as combination index at 5 uM after 24 hrs by cell titer-glo luminescence assay; format: functional
K562 [38] = assay: Potentiation of 2.5 nM (-)-lomaiviticin A-induced cytotoxicity against human K562 cells assessed as combination index at 5 uM after 48 hrs by cell titer-glo luminescence assay; format: functional
K562 [39] = assay: Potentiation of 0.5 nM (-)-lomaiviticin A-induced cytotoxicity against human K562 cells assessed as fraction ratio affected at 5 uM after 24 hrs by cell titer-glo luminescence assay; format: functional
K562 [40] = assay: Potentiation of 0.025 nM (-)-lomaiviticin A-induced cytotoxicity against human K562 cells assessed as combination index at 5 uM after 24 hrs by cell titer-glo luminescence assay; format: functional
K562 [41] = assay: Potentiation of 0.5 nM (-)-lomaiviticin A-induced cytotoxicity against human K562 cells assessed as fraction ratio affected at 5 uM after 48 hrs by cell titer-glo luminescence assay; format: functional
K562 [42] = assay: Potentiation of 0.05 nM (-)-lomaiviticin A-induced cytotoxicity against human K562 cells assessed as fraction ratio affected at 5 uM after 24 hrs by cell titer-glo luminescence assay; format: functional
K562 [43] = assay: Potentiation of 0.025 nM (-)-lomaiviticin A-induced cytotoxicity against human K562 cells assessed as fraction ratio affected at 5 uM after 48 hrs by cell titer-glo luminescence assay; format: functional
K562 [44] = assay: Potentiation of 5 nM (-)-lomaiviticin A-induced cytotoxicity against human K562 cells assessed as fraction ratio affected at 5 uM after 48 hrs by cell titer-glo luminescence assay; format: functional
K562 [45] = assay: Potentiation of 0.25 nM (-)-lomaiviticin A-induced cytotoxicity against human K562 cells assessed as combination index at 5 uM after 48 hrs by cell titer-glo luminescence assay; format: functional
K562 [46] = assay: Induction of DNA double-strand breaks in human K562 cells at 50 to 500 pM after 24 hrs by neutral comet assay; format: functional, cell-based
[47] = Selectivity ratio of LC50 for chinese hamster VC8 cells expressing BRCA2 to LC50 for BRCA2-deficient chinese hamster VC8 cells; format: functional, Cricetulus griseus
[48] = Cytotoxicity against BRCA2-deficient chinese hamster VC8 cells assessed as decrease in cell viability by clonogenic survival assay; format: functional; conditions: Cricetulus griseus, V-C8; read-out: LC50 (the source's name)
U-251 [49] = assay: Selectivity ratio of LC50 for human U251 cells expressing PTEN to LC50 for PTEN-deficient human U251 cells; format: functional
K562 [50] = assay: Induction of apoptosis in human K562 cells assessed as gammaH2AX/53BP1 levels up to 250 pM after 48 hrs by DAPI staining based immunofluorescence microscopy; format: functional, cell-based
K562 [51] = assay: Cytotoxicity against human K562 cells assessed as effect on cell viability at 0.05 to 0.5 nM after 24 to 48 hrs by cell titer-glo luminescence assay; format: functional
K562 [52] = assay: Cytotoxicity against human K562 cells assessed as decrease in cell viability at 1 nM after 48 hrs by cell titer-glo luminescence assay; format: functional
U-251 [53] = assay: Cytotoxicity against PTEN-deficient human U251 cells assessed as decrease in cell viability by clonogenic survival assay; format: functional; conditions: read-out: LC50 (the source's name)
K562 [54] = assay: Potentiation of 250 pM (-)-lomaiviticin A-induced cytotoxicity against human K562 cells assessed as decrease in cell viability at 10 uM after 48 hrs by cell titer-glo luminescence assay; format: functional, cell-based

O=C(c1cc(Cc2n[nH]c(=O)c3ccccc23)ccc1F)N1CCN(C(=O)C2CC2)CC1 [OLAPARIB]
CI (K562 [1]): 1.234 | Ratio (K562 [2]): 0.00109 | CI (K562 [3]): 29.2295 | CI (K562 [4]): 31.4921 | CI (K562 [5]): 0.358 | Ratio (K562 [6]): 0.557 | CI (K562 [7]): 45.0812 | CI (K562 [8]): 29.7935 | CI (K562 [9]): 0.182 | Ratio (K562 [10]): 0.03638 | CI (K562 [11]): 0.2699 | CI (K562 [12]): 28.4346 | Activity (K562 [13]): Non-toxic | CI (K562 [14]): 0.138 | Ratio (K562 [15]): 0.1238 | Ratio (K562 [16]): 0.02866 | Ratio (K562 [17]): 0.3508 | CI (K562 [18]): 2.076 | CI (K562 [19]): 1.277

O=C(CCCCCCC(=O)Nc1ccccc1)NO [VORINOSTAT]
CC50 at 48 h [20]: 1250 nM | Activity (K562 [21]): Dose-dependent effect

O=c1cc(N2CCOCC2)oc2c(-c3cccc4c3sc3ccccc34)cccc12
CI (K562 [22]): 0.1033 | CI (K562 [23]): 0.8596 | Ratio (K562 [24]): 0.9647 | Ratio (K562 [25]): 0.7163 | Ratio (K562 [26]): 0.1927 | CI (K562 [27]): 0.4328 | CI (K562 [28]): 0.4461 | CI (K562 [29]): 0.6686 | CI (K562 [30]): 0.2068 | Ratio (K562 [31]): 0.1436 | Ratio (K562 [32]): 0.5477 | Ratio (K562 [33]): 0.9451 | CI (K562 [34]): 1.056 | Ratio (K562 [35]): 0.5832 | CI (K562 [36]): 0.9596 | CI (K562 [37]): 0.3196 | CI (K562 [38]): 1.147 | Activity (K562 [13]): Non-toxic | Ratio (K562 [39]): 0.2584 | CI (K562 [40]): 0.0855 | Ratio (K562 [41]): 0.6811 | Ratio (K562 [42]): 0.1367 | Ratio (K562 [43]): 0.4881 | Ratio (K562 [44]): 0.9912 | CI (K562 [45]): 0.8337

CC[C@@]1(O[C@H]2C[C@H](OC)[C@@H](O)[C@H](C)O2)[C@H](O[C@H]2C[C@@H](O)[C@H](N(C)C)[C@@H](C)O2)c2c(c3c(=O)c4c(O)ccc(O)c4c(=O)c=3c2=[N+]=[N-])C(=O)[C@@H]1[C@H]1C(=O)c2c(c(=[N+]=[N-])c3c(=O)c4c(O)ccc(O)c4c(=O)c2=3)[C@@H](O[C@H]2C[C@@H](O)[C@H](N(C)C)[C@@H](C)O2)[C@@]1(CC)O[C@H]1C[C@H](OC)[C@@H](O)[C@H](C)O1
Activity (K562 [46]): inactive | RatioLC50 [47]: >11.6 | CC50 [48]: 0.0015 nM | RatioLC50 (U-251 [49]): >11.6 | Activity (K562 [50]): Active | Activity (K562 [51]): <5% | Activity (K562 [52]): 34% | CC50 (U-251 [53]): 0.002 nM | Activity (K562 [54]): Active
